Among the data in ChEMBL document CHEMBL5338814, “Discovery of Small-Molecule Degraders for Alpha-Synuclein Aggregates” (J Med Chem, 2023) are Activity, logP and Drug uptake values, retold here.

The structures appear in SMILES notation. Active and inactive are the calls of the source. The rule behind the calls is not given here.

Data set [1] has as its target T1, Protein cereblon/Alpha-synuclein (Homo sapiens) (UniProt P37840+Q96SW2). The data set is described as follows: PROTAC activity at CRBN/recombinant alpha-synuclein preformed fibrils seeded in HEK293T cells assessed as decrease in alpha-synuclein aggregates at 5 to 20 uM measured after 48 hrs by immunoblot analysis. The class given is cell-based. Particulars: dose 5-20 µM.

The target in data set [2] is T1, Protein cereblon/Alpha-synuclein (Homo sapiens). Nature of the data set: PROTAC activity at CRBN/recombinant alpha-synuclein preformed fibrils seeded in HEK293T cells assessed as decrease in alpha-synuclein aggregates upto 40 uM measured after 48 hrs by immunoblot analysis. The class given is cell-based. On the technique in general: In western blotting, separated proteins are transferred to a membrane and probed.

The target in data set [3] is von Hippel-Lindau disease tumor suppressor/Alpha-synuclein (Homo sapiens) (UniProt P37840+P40337). Nature of the data set: PROTAC activity at VHL/recombinant alpha-synuclein preformed fibrils seeded in HEK293T cells assessed as decrease in alpha-synuclein aggregates upto 40 uM measured after 48 hrs by immunoblot analysis. Format: cell-based.
In data set [4] the test system is HEK-293T. Nature of the data set: Effect on alpha-synuclein total level in HEK293T cells seeded with recombinant alpha-synuclein preformed fibrils upto 40 uM measured after 48 hrs by immunoblot analysis. Particulars: Homo sapiens. The class given is functional, cell-based.
In data set [5] the test system is HEK-293T. The data set is described as follows: Effect on alpha-synuclein total level in HEK293T cells upto 40 uM measured after 48 hrs by immunoblot analysis. Format: functional, cell-based. The note with it: Homo sapiens.
In data set [6] the test system is HEK-293T. The data set is described as follows: Downregulation of alpha-synuclein in HEK293T cells seeded with recombinant alpha-synuclein preformed fibrils at 10 uM incubated for 24 hrs by label free quantification based proteomics analysis. Format: functional, cell-based. The note with it: Homo sapiens.
For data set [7], the system named is HEK-293T. Nature of the data set: Activation of autophagy-lysosome pathway in HEK293T cells seeded with recombinant alpha-synuclein preformed fibrils assessed as increase in LC3B-II/I ratio at 10 uM incubated for 6 hrs by immunoblot analysis. Format: functional, cell-based. The note with it: Homo sapiens.
The test system of data set [8] is HEK-293T. The data set is described as follows: Activation of autophagy-lysosome pathway in HEK293T cells seeded with recombinant alpha-synuclein preformed fibrils assessed as decrease in p62 level at 10 uM incubated for 6 hrs by immunoblot analysis. The class given is functional, cell-based. Particulars: Homo sapiens.
Data set [9] deals with HEK-293T. Nature of the data set: Activation of autophagy-lysosome pathway in HEK293T cells seeded with recombinant alpha-synuclein preformed fibrils harboring adenovirus-mCherry-GFP-LC3B assessed as increase in LC3B punctae number at 10 uM treated for 6 hrs by DAPI staining based confocal laser scanning microscopic analysis. Format: functional, cell-based. Particulars: Homo sapiens.

Data set [10] has as its system HEK-293T. Nature of the data set: Activation of autophagy-lysosome pathway in HEK293T cells seeded with recombinant alpha-synuclein preformed fibrils harboring adenovirus-mCherry-GFP-LC3B assessed as increase in LC3B punctae density at 10 uM treated for 6 hrs by DAPI staining based confocal laser scanning microscopic analysis. The note with it: Homo sapiens. Format: functional, cell-based.

For data set [11], the system named is HEK-293T. Nature of the data set: Activation of autophagy-lysosome pathway in HEK293T cells seeded with recombinant alpha-synuclein preformed fibrils harboring adenovirus-mCherry-GFP-LC3B assessed as increase in GFP(-) punctae ratio at 10 uM treated for 6 hrs by DAPI staining based confocal laser scanning microscopic analysis. The class given is functional, cell-based. Particulars: Homo sapiens.

Data set [12] concerns HEK-293T. Nature of the data set: Activation of autophagy-lysosome pathway in HEK293T cells seeded with recombinant alpha-synuclein preformed fibrils assessed as increase in LAMP1 expression at 10 uM incubated for 6 hrs by immunoblot analysis. The class given is functional, cell-based. Particulars: Homo sapiens.
Data set [13] concerns HEK-293T. Nature of the data set: Activation of autophagy-lysosome pathway in HEK293T cells seeded with recombinant alpha-synuclein preformed fibrils assessed as increase in lysosome generation at 10 uM incubated for 6 hrs by LyTR staining based confocal laser scanning microscopic analysis. The class given is functional, cell-based. Particulars: Homo sapiens.
Data set [14] can be described thus: 1-Octanol-water partition coefficient, logP of the compound incubated for 24 hrs by HPLC analysis. The class given is physicochemical.
Data set [15] can be described thus: Drug uptake in HEK293T cell membrane at 10 uM measured at 5 to 360 min by confocal laser scanning microscopic analysis. The class given is ADME, cell membranes. Particulars: human, hek-293t, time 5-360 min.
Data set [16] concerns SH-SY5Y. Nature of the data set: Neuroprotective activity against alpha-synuclein aggregate-induced cell death in human SH-SY5Y cells over-expressing alpha-synuclein preformed fibrils assessed as decrease in cell death at 10 uM by CCK8 assay. The class given is functional, cell-based.
Data set [17] relates to SH-SY5Y. Nature of the data set: Neuroprotective activity against alpha-synuclein aggregate-induced cell injury in human SH-SY5Y cells over-expressing alpha-synuclein preformed fibrils assessed as decrease in LDH release at 10 uM by LDH assay. The class given is functional, cell-based.
For data set [18], the system named is Caenorhabditis elegans. Nature of the data set: In vivo PROTAC activity at CRBN/Alpha-synuclein overexpressed in Caenorhabditis elegans NL5901 co-expressing YFP fusion protein assessed as induction of alpha-synuclein aggregate degradation incubated for 48 hrs by immunoblot analysis. Format: functional, organism-based. The note with it: dose 20-80 µM.
In data set [19] the test system is Caenorhabditis elegans. Nature of the data set: In vivo PROTAC activity at CRBN/Alpha-synuclein overexpressed in Caenorhabditis elegans NL5901 co-expressing YFP fusion protein assessed as induction of alpha-synuclein aggregate degradation incubated for 48 hrs by dot blot analysis. Format: functional, organism-based. Particulars: dose 20-80 µM.
Data set [20] concerns Caenorhabditis elegans. The data set is described as follows: In vivo PROTAC activity at CRBN/Alpha-synuclein overexpressed in Caenorhabditis elegans NL5901 co-expressing YFP fusion protein assessed as reduction in alpha-synuclein-YFP level at 20 to 80 uM incubated for 48 hrs by confocal laser scanning microscopic analysis. The class given is functional, organism-based. Particulars: dose 20-80 µM.

The test system of data set [21] is Caenorhabditis elegans. The data set is described as follows: In vivo PROTAC activity at CRBN/Alpha-synuclein overexpressed in Caenorhabditis elegans NL5901 co-expressing YFP fusion protein assessed as reduction in alpha-synuclein-YFP MFI at 20 to 80 uM incubated for 48 hrs by confocal laser scanning microscopic analysis. Format: functional, organism-based. The note with it: dose 20-80 µM.

Data set [22] concerns the target Baculoviral IAP repeat-containing protein 2/Alpha-synuclein (Homo sapiens) (UniProt Q13490+P37840). The data set is described as follows: PROTAC activity at cIAP1/recombinant alpha-synuclein preformed fibrils seeded in HEK293T cells assessed as decrease in alpha-synuclein aggregates upto 40 uM measured after 48 hrs by immunoblot analysis. Format: cell-based.

Take `CN1C(=O)CCC(N2C(=O)c3cccc(NCCOCCOCCOCCNC(=O)CNc4cccc(-c5cc(-c6ccc7c(c6)OCO7)n[nH]5)c4)c3C2=O)C1=O` (stereo not given): in data set [1], the outcome was inactive.
As to `O=C(CNc1cccc(-c2cc(-c3ccc4c(c3)OCO4)n[nH]2)c1)NCCOCCOCCNc1cccc2c1C(=O)N(C1CCC(=O)NC1=O)C2=O` (stereo not given), the result in data set [2] was Active.
Consider `Cc1ncsc1-c1ccc([C@H](C)NC(=O)[C@@H]2C[C@@H](O)CN2C(=O)[C@@H](NC(=O)CCOCCOCCNc2cccc(-c3cc(-c4ccc5c(c4)OCO5)n[nH]3)c2)C(C)(C)C)cc1`, for which the result in [3] was Active.
In general, logP refers to a log measure of how a compound divides between an organic and an aqueous phase. The low end stands for lower lipophilicity, the high end for higher lipophilicity. `O=C(CNc1cccc(-c2cc(-c3ccc4c(c3)OCO4)n[nH]2)c1)NCCOCCOCCOCCNc1cccc2c1C(=O)N(C1CCC(=O)NC1=O)C2=O` (stereo not given): the outcome in [4] and in data set [5] was inactive. For the same molecule, the outcome in data set [6], in [7], in data set [8], in data set [9], in data set [10] and in data set [11] was Active. Further, the outcome in data set [12], in data set [13], in data set [16], in [17], in [20] and in data set [21] was Active. This molecule also displayed a logP at 24 h in data set [14] of 2.04. In addition, the Drug uptake entry in [15] was “Active”. In addition, the Activity entry in [18] and in [19] was “Dose-Dependent Effect” each time.
In the case of `CC(C)C[C@H](NC(=O)[C@@H](O)[C@H](N)Cc1ccccc1)C(=O)NCCOCCOCCOCCNc1cccc(-c2cc(-c3ccc4c(c3)OCO4)n[nH]2)c1`, in data set [22], the result was Active.
With `Nc1cccc(-c2cc(-c3ccc4c(c3)OCO4)n[nH]2)c1`, the outcome in data set [1] was inactive.
Take `Cc1ncsc1-c1ccc([C@H](C)NC(=O)[C@@H]2C[C@@H](O)CN2C(=O)[C@@H](NC(=O)CCOCCOCCOCCNc2cccc(-c3cc(-c4ccc5c(c4)OCO5)n[nH]3)c2)C(C)(C)C)cc1`: the outcome in [3] was Active.
On to `CC(C)C[C@H](NC(=O)[C@@H](O)[C@H](N)Cc1ccccc1)C(=O)NCCOCCOCCNc1cccc(-c2cc(-c3ccc4c(c3)OCO4)n[nH]2)c1`, for which, in data set [22], the outcome was Active.
